US9259396B2, “Method of preparing soy isoflavone nanoparticles by precipitation with compressed antisolvent (PCA) using a supercritical fluid” (Nano and Advanced Materials Institute Limited, priority 2012, dated 2016)

What was measured:
[1] = Saturation concentration of genistein in acetone; assay type: physicochemical; details: room temperature and atmospheric pressure
Experimental: As used herein, the concentration of genistein means the concentration of the genistein dissolved in an organic solvent such as acetone at room temperature and atmospheric pressure. The saturation point of genistein concentration dissolved in acetone at room temperature and atmospheric pressure is 4 mg/mL.

[2] = Dissolution rate study in a dissolution medium; assay type: physicochemical; details: over a period of 20 minutes
Experimental: FIG. 9 is dissolution profiles of raw genistein versus PCA processed genistein under different pressures of 70 bar (Run 6) and 100 bar (Run 4).
46% weight percentage of the processed genistein from Run 4 (100 bar) is dissolved in a dissolution medium while only 23% of the unprocessed genistein is dissolved over a period of 20 minutes. This 2-fold increase in dissolution rate can be credited to the reduction in particle size resulting in an increase in total surface area. However, the dissolution rate for particles which are obtained at 70 bar with smaller particles (Run 6) is slower than that of particles obtained at 100 bar (Run 4).

## O=c1c(-c2ccc(O)cc2)coc2cc(O)cc(O)c12 [unprocessed genistein, genistein]
[1]
  saturation point of genistein concentration dissolved in acetone: 4 mg/mL
[2]
  weight percentage dissolved in a dissolution medium: 23%
